Patent US12214039B2, “Systems and methods for treatments of an eye with a photosensitizer” (Avedro, Inc., priority 2015, dated 2025)
Entries after “also recorded” stand apart in the source; their conditions may differ.

Tests used:
[1] = single surfactant; cited from earlier work
[2] = system: pig eyes with intact epithelium; assay: Relative fluorescence (F/Fo) of cross-linked corneal flaps, surfactants in riboflavin solution (Study 4)
Procedure: Pig eyes shipped overnight on ice from an abattoir (SiouxPreme, Sioux City, IA) were rinsed in saline. The eyes with intact epithelium were soaked with one of the test solutions below for 20 minutes in an incubator set at 37° C. by using a rubber ring to hold the solution on top.
For a Group A of the pig eyes, the following riboflavin formulations were used: • (a1) 0.25% riboflavin solution containing BAC (PARACEL™, Avedro, Inc., Waltham, MA); • (a2) 0.1% w.v. riboflavin solution containing saline (PHOTREXA ZD™ Avedro, Inc., Waltham, MA) with added riboflavin to match the riboflavin content (0.25%) in solution (a1); • (a3) solution (a2) with 1% Polidocanol; • (a4) solution (a2) with 5% Polidocanol; and • (a5) solution (a2) with 10% Polidocanol.
The epitheliums of eyes in Group A were removed with a dull blade after the eyes were soaked in one of the solutions and irradiated pan-corneally on air with a top hat beam (3% root mean square) for 4 minutes with 365-nm light source (UV LED NCSU033B[T]; Nichia Co., Tokushima, Japan) at a chosen irradiance of 30 mW/cm^2 which was measured with a power sensor (model PD-300-UV; Ophir, Inc., Jerusalem, Israel) at the corneal surface. Corneal flaps (approximately 200 μm thick) were excised from the eyes with aid of an Intralase femtosecond laser (Abbot Medical Optics, Santa Ana, CA). The average thickness of the corneal flaps was calculated as a difference between the measurements before and after the excision from the eyes with an ultrasonic Pachymeter (DGH Technology, Exton, PA). The flaps were washed with distilled water and dried in a vacuum until the weight change became less than 10% (Rotary vane vacuum pump RV3 A652-01-903, BOC Edwards, West Sussex, UK). […] Papain digests were diluted 0.5 times with 1×BBBS and fluorescence of the solutions was measured with excitation of 360 nm in a QM-40 Spectrofluorometer (Photon Technology Int., London, Ontario, Canada). The fluorescence of the papain buffer was taken into account by measuring fluorescence in the absence of tissue and subtracting this value from the fluorescence of the samples. […]

[3] = in riboflavin solution, pig eyes

| Compound | HLB number [1] | corrosion and damage to the epithelium ([2]; corneal epithelium) | enhancing permeability and generating cross-linking activity, compared with other surfactants [2, 3] | enhancing permeability in the epithelium and generating cross-linking activity, compared with BAC [2, 3] |
| --- | --- | --- | --- | --- |
| CCCCCCCCCc1ccc(OCCOCCOCCOCCOCCOCCOCCOCCOCCO)cc1 [IGEPAL CO-630] | 13 | – | – | – |
| Polyoxyethylene (9) lauryl ether [Polidocanol] | – | do not cause damage to the epithelium; also recorded: less corrosive and damaging to the epithelium than BAC | more effective than many other surfactants | far more effective and efficient than BAC |
